# In patent publication US12655116B2, “Substituted isophthalic acid diamides” (Bayer Aktiengesellschaft, priority 2020, dated 2026):
# Columns and labels:
# ABUTH [1] = test: Pre-emergence herbicidal action against ABUTH; format: in vivo, Abutilon theophrasti
# Summary of the method: (§1)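 Sandy loam pots, seeds covered with soil, then surface-treated with WP or EC formulations at 600–800 l/ha water plus 0.2% wetting agent. Greenhouse, 3 weeks. Percent damage vs untreated controls.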
# ECHCG [2] = test: Post-emergence herbicidal action against ECHCG; format: in vivo, Echinochloa crus-galli; conditions: dosage 20 g/ha
# Summary of the method: (§2)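 Visual % rating (0% = as untreated, 100% = dead) ~3 wk after spraying one-leaf-stage plants grown in sandy loam; WP/EC in water at 600–800 l/ha, 0.2% wetting agent.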
# ECHCG [3] = test: Pre-emergence herbicidal action against ECHCG; format: in vivo, Echinochloa crus-galli; conditions: 80 g/ha
# Summary of the method: as §1
# PHBPU [4] = test: Post-emergence herbicidal action against PHBPU; format: in vivo, Pharbitis purpurea
# Summary of the method: as §2
# SETVI = test: Pre-emergence herbicidal action against SETVI; format: in vivo, Setaria viridis; conditions: dosage 80 g/ha
# Summary of the method: as §1
# DIGSA [5] = test: Pre-emergence herbicidal action against DIGSA; format: in vivo, Digitaria sanguinalis
# Summary of the method: as §1
# POLCO = test: Pre-emergence herbicidal action against POLCO; format: in vivo, Polygonum convolvulus; conditions: dosage 80 g/ha
# Summary of the method: as §1
# PHBPU [6] = test: Pre-emergence herbicidal action against PHBPU; format: in vivo, Pharbitis purpurea
# Summary of the method: as §1
# AMARE [7] = test: Pre-emergence herbicidal action against AMARE; format: in vivo, Amaranthus retroflexus
# Summary of the method: as §1
# MATIN [8] = test: Post-emergence herbicidal action against MATIN; format: in vivo, Matricaria inodora; conditions: dosage 20 g/ha
# Summary of the method: as §2
# LOLRI = test: Pre-emergence herbicidal action against LOLRI; format: in vivo, Lolium rigidum; conditions: 80 g/ha
# Summary of the method: as §1
# ALOMY [9] = test: Pre-emergence herbicidal action against ALOMY; format: in vivo, Alopecurus myosuroides; conditions: pre-emergence
# Summary of the method: as §1
# VERPE = test: Pre-emergence herbicidal action against VERPE; format: in vivo, Veronica persica
# Summary of the method: as §1
# DIGSA [10] = test: Post-emergence herbicidal action against DIGSA; format: in vivo, Digitaria sanguinalis; conditions: 20 g/ha
# Summary of the method: as §2
# AMARE [11] = test: Post-emergence herbicidal action against AMARE; format: in vivo, Amaranthus retroflexus; conditions: 20 g/ha, visual assessment about 3 weeks after treatment, 100% = plants have died, 0% = like control plants
# Summary of the method: as §2
# MATIN [12] = test: Pre-emergence herbicidal action against MATIN; format: in vivo, Matricaria inodora
# Summary of the method: as §1
# ABUTH [13] = test: Post-emergence herbicidal action against ABUTH; format: in vivo, Abutilon theophrasti; conditions: visual assessment about 3 weeks after treatment vs untreated controls
# Summary of the method: as §2
# VIOTR [14] = test: Pre-emergence herbicidal action against VIOTR; format: in vivo, Viola tricolor
# Summary of the method: as §1
# ALOMY [15] = test: Post-emergence herbicidal action against ALOMY; format: in vivo, Alopecurus myosuroides; conditions: dosage 20 g/ha, visual assessment about 3 weeks after treatment vs untreated controls
# Summary of the method: as §2
# AVEFA = test: Pre-emergence herbicidal action against AVEFA; format: in vivo, Avena fatua; conditions: 80 g/ha, pre-emergence
# Summary of the method: as §1
# VIOTR [16] = test: Post-emergence herbicidal action against VIOTR; format: in vivo, Viola tricolor; conditions: Viola tricolor, 504 h, 20 g/ha
# Summary of the method: as §2
# [17] = 80 g/ha, scored visually after 3 weeks vs untreated controls (100% = plants have died, 0% = like control plants)
smiles,measurement,setting,value
CCCNC(=O)c1c(C(F)F)ccc(C(=O)Nc2nnnn2CC)c1Cl [Example 2-154],Pre-emergence action against ABUTH (herbicidal activity),ABUTH [1]; [17],100%
same,Pre-emergence action against ABUTH (herbicidal activity in percent),"ABUTH [1]; dosage 20 g/ha, scored visually after 3 weeks vs untreated controls, 100% = plants have died, 0% = like control plants",100%
same,Post-emergence action against ECHCG in %,ECHCG [2],90%
same,Pre-emergence action against ECHCG in %,ECHCG [3],100%
same,Post-emergence action against PHBPU in %,PHBPU [4]; dosage 5 g/ha,90%
same,Post-emergence action against PHBPU in %,PHBPU [4]; dosage 20 g/ha,90%
same,Pre-emergence action against SETVI in %,SETVI,100%
same,Pre-emergence action against DIGSA in %,DIGSA [5]; dosage 20 g/ha,100%
same,Pre-emergence action against DIGSA in %,DIGSA [5]; dosage 80 g/ha,100%
same,Pre-emergence action against POLCO in %,POLCO,90%
same,Pre-emergence action against PHBPU in %,PHBPU [6]; dosage 20 g/ha,80%
same,Pre-emergence action against PHBPU in %,PHBPU [6]; dosage 80 g/ha,100%
same,Pre-emergence action against AMARE in %,"AMARE [7]; 20 g/ha, scored visually after 3 weeks vs untreated controls, 100% = plants have died, 0% = like control plants",100%
same,Pre-emergence action against AMARE in %,AMARE [7]; [17],100%
same,Post-emergence action against MATIN in %,MATIN [8],80%
same,Pre-emergence action against LOLRI in %,LOLRI,90%
same,Pre-emergence action against ALOMY (herbicidal activity),ALOMY [9]; [17],100%
same,Pre-emergence action against VERPE in %,VERPE; dosage 80 g/ha,100%
same,Post-emergence action against DIGSA,DIGSA [10],90%
same,Post-emergence action at 20 g/ha against AMARE in %,AMARE [11],90%
same,Pre-emergence action against MATIN in %,MATIN [12]; dosage 20 g/ha,100%
same,Pre-emergence action against MATIN in %,MATIN [12]; dosage 80 g/ha,100%
same,Post-emergence action against ABUTH in %,ABUTH [13]; dosage 5 g/ha,80%
same,Post-emergence action against ABUTH in %,ABUTH [13]; dosage 20 g/ha,90%
same,Pre-emergence action against VIOTR in %,VIOTR [14]; dosage 80 g/ha,100%
same,Post-emergence action against ALOMY in %,ALOMY [15],80%
CCn1nnnc1NC(=O)c1ccc(C(F)F)c(C(=O)NC(C)C)c1Cl [Example 2-155],pest or weed control at 80 g/ha,"ABUTH [1]; Abutilon theophrasti, 504 h, 80 g/ha, scored visually after 3 weeks vs untreated controls (100% = plants have died, 0% = like control plants)",100%
same,pest or weed control at 20 g/ha,"ABUTH [1]; Abutilon theophrasti, 504 h, dosage 20 g/ha, scored visually after 3 weeks vs untreated controls, 100% = plants have died, 0% = like control plants, read-out: Pre-emergence action against ABUTH (herbicidal activity in percent)",100%
same,pest or weed control at 80 g/ha,"ECHCG [3]; Echinochloa crus-galli, 504 h",100%
same,pest or weed control at 20 g/ha,"PHBPU [4]; Ipomoea purpurea, 504 h, dosage 20 g/ha",80%
same,pest or weed control at 80 g/ha,"SETVI; Setaria viridis, 504 h",90%
same,pest or weed control at 20 g/ha,"DIGSA [5]; Digitaria sanguinalis, 504 h, dosage 20 g/ha",100%
same,pest or weed control at 80 g/ha,"DIGSA [5]; Digitaria sanguinalis, 504 h, dosage 80 g/ha",100%
same,pest or weed control at 80 g/ha,"POLCO; Fallopia convolvulus, 504 h",90%
same,pest or weed control at 80 g/ha,"PHBPU [6]; Ipomoea purpurea, 504 h, dosage 80 g/ha",100%
same,pest or weed control at 20 g/ha,"AMARE [7]; Amaranthus retroflexus, 504 h, 20 g/ha, scored visually after 3 weeks vs untreated controls, 100% = plants have died, 0% = like control plants",100%
same,pest or weed control at 80 g/ha,"AMARE [7]; Amaranthus retroflexus, 504 h, 80 g/ha, scored visually after 3 weeks vs untreated controls, 100% = plants have died, 0% = like control plants",100%
same,pest or weed control at 20 g/ha,"MATIN [8]; Tripleurospermum inodorum, 504 h",90%
same,pest or weed control at 80 g/ha,"LOLRI; Lolium rigidum, 504 h",80%
same,pest or weed control at 80 g/ha,"ALOMY [9]; Alopecurus myosuroides, 504 h, 80 g/ha, scored visually after 3 weeks vs untreated controls (100% = plants have died, 0% = like control plants)",100%
same,pest or weed control at 20 g/ha,"ALOMY [9]; Alopecurus myosuroides, 504 h, 20 g/ha, scored visually after 3 weeks, 100% = plants have died, 0% = like control plants",80%
same,pest or weed control at 20 g/ha,"VERPE; Veronica persica, 504 h, dosage 20 g/ha",80%
same,pest or weed control at 80 g/ha,"VERPE; Veronica persica, 504 h, dosage 80 g/ha",100%
same,pest or weed control at 80 g/ha,"AVEFA; Avena fatua, 504 h",90%
same,pest or weed control at 20 g/ha,"AMARE [11]; Amaranthus retroflexus, 504 h",90%
same,pest or weed control at 20 g/ha,"MATIN [12]; Tripleurospermum inodorum, 504 h, dosage 20 g/ha",100%
same,pest or weed control at 80 g/ha,"MATIN [12]; Tripleurospermum inodorum, 504 h, dosage 80 g/ha",100%
same,pest or weed control at 20 g/ha,VIOTR [16],80%
same,pest or weed control at 5 g/ha,"ABUTH [13]; Abutilon theophrasti, 504 h, dosage 5 g/ha",80%
same,pest or weed control at 20 g/ha,"ABUTH [13]; Abutilon theophrasti, 504 h, dosage 20 g/ha",80%
same,pest or weed control at 20 g/ha,"VIOTR [14]; Viola tricolor, 504 h, dosage 20 g/ha",90%
same,pest or weed control at 80 g/ha,"VIOTR [14]; Viola tricolor, 504 h, dosage 80 g/ha",100%
same,pest or weed control at 20 g/ha,"ALOMY [15]; Alopecurus myosuroides, 504 h",90%
CCn1nnnc1NC(=O)c1ccc(C(F)(F)F)c(C(=O)NCC(F)F)c1Br [Example 2-212],Pre-emergence action against ABUTH (herbicidal activity),ABUTH [1]; [17],100%
same,Post-emergence action against ECHCG in %,ECHCG [2],80%
same,Pre-emergence action against ECHCG in %,ECHCG [3],90%
same,Pre-emergence action against SETVI in %,SETVI,100%
same,Pre-emergence action against DIGSA in %,DIGSA [5]; dosage 80 g/ha,100%
same,Pre-emergence action against POLCO in %,POLCO,80%
same,Pre-emergence action against PHBPU in %,PHBPU [6]; dosage 80 g/ha,80%
same,Pre-emergence action against AMARE in %,AMARE [7]; [17],100%
same,Pre-emergence action against LOLRI in %,LOLRI,90%
same,Pre-emergence action against ALOMY (herbicidal activity),ALOMY [9]; [17],100%
same,Post-emergence action against DIGSA,DIGSA [10],100%
same,Pre-emergence action against AVEFA in %,AVEFA,90%
same,Pre-emergence action against MATIN in %,MATIN [12]; dosage 80 g/ha,100%
same,Pre-emergence action against VIOTR in %,VIOTR [14]; dosage 80 g/ha,100%
